Active and inactive are the calls of the source. The calls are words filed in the database; no cut-off is given here.

The test system of experiment [1] is Alpha-mannosidase (Prunus dulcis). Description: Percentage inhibition of Alpha-mannosidase from Almond at 1 mM.
Another experiment concerns the target T1, Beta-galactosidase (Bos taurus, UniProt Q58D55).
T1 sequence (Q58D55 whole entry): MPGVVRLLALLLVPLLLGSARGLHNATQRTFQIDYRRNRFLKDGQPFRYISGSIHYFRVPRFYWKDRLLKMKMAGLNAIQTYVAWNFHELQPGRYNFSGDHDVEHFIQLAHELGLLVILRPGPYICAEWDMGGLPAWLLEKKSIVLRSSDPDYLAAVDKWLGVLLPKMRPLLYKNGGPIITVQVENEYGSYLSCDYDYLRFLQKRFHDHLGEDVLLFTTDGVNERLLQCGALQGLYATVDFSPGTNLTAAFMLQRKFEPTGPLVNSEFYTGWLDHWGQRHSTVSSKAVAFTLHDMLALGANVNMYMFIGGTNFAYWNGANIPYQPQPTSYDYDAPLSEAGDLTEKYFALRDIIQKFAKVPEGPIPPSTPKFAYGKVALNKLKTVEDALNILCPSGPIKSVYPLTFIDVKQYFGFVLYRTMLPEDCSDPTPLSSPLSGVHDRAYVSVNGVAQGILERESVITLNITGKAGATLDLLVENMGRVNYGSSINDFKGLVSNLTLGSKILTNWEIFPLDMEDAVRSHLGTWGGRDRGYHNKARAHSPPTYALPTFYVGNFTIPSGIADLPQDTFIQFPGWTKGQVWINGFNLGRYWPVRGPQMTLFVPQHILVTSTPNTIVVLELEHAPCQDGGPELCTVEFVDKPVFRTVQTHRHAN
Description: Inhibitory activity towards Beta-galactosidase from Bovine liver.

The nature of experiment [2]: Percentage inhibition of Beta-galactosidase from Aspergillus oryzae at 1 mM; No inhibition.
The nature of experiment [3]: Percentage inhibition of Beta-galactosidase from Jack bean at 1 mM concentration. To be noted: Canavalia ensiformis.
The target in experiment [4] is T2, Alpha-glucosidase (Oryza sativa Japonica Group) (UniProt Q9LGC6).
T2 sequence (whole entry): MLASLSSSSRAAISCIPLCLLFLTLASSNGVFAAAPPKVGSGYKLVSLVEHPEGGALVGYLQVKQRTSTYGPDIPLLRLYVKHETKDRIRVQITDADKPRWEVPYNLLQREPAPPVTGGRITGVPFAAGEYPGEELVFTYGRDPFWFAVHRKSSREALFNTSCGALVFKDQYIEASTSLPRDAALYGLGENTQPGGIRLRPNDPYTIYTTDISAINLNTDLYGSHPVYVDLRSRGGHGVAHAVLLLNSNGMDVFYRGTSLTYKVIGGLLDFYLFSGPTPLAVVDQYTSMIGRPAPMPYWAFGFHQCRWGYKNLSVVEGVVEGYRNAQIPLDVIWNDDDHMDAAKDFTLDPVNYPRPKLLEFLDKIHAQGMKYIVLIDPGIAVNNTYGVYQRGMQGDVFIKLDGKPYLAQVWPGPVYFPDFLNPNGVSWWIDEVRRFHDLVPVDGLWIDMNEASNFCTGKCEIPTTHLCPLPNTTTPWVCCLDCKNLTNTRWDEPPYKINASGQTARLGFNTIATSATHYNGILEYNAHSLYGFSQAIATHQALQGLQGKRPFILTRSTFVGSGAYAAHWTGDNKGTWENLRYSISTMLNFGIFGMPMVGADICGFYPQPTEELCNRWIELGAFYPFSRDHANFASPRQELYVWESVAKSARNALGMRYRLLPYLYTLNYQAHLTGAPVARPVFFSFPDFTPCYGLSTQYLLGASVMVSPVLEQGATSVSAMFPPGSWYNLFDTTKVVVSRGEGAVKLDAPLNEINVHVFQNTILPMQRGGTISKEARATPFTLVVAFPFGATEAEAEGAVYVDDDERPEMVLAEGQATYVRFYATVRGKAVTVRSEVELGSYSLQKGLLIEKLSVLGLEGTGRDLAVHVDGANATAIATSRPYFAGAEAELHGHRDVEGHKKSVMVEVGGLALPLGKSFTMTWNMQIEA
As to the kind of experiment: Percentage inhibition of Alpha-glucosidase from Rice (maltase) at 1 mM; […].

For experiment [5], the target named is T3, Beta-galactosidase (Aspergillus niger) (UniProt P29853).
T3 sequence (whole entry): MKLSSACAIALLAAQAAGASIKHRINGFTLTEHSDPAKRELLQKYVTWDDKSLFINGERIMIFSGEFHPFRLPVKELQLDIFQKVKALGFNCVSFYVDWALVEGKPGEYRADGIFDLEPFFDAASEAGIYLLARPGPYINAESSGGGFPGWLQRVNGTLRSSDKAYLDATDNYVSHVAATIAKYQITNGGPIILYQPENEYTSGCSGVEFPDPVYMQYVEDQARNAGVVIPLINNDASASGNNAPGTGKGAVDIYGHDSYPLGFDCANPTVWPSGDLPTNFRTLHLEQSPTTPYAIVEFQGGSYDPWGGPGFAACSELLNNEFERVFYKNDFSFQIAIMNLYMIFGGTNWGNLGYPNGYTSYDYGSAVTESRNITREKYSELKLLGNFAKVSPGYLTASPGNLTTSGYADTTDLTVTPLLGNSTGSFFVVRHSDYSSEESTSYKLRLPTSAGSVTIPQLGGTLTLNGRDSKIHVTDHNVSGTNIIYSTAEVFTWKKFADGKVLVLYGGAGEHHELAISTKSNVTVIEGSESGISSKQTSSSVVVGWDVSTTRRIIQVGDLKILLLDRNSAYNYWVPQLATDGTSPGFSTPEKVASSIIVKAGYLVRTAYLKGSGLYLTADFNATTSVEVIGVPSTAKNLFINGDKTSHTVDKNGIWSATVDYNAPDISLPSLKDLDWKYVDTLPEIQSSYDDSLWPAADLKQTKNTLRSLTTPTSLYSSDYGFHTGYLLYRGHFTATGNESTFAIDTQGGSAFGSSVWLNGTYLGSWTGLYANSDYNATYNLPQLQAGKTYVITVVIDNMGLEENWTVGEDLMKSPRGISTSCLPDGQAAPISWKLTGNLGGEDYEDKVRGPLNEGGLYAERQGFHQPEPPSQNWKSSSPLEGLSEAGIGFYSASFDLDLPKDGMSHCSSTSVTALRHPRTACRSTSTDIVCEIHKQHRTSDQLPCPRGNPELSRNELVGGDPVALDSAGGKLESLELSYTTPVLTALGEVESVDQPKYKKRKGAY
Description: Percentage inhibition of Beta-galactosidase from Aspergillus niger at 1 mM concentration; […].

Experiment [6] can be described thus: Inhibitory activity towards Alpha-glucosidase from Baker yeast (isomaltase). The arrangement: species or system Saccharomyces cerevisiae.
The next experiment concerns Saccharomyces cerevisiae. Description: Percentage inhibition of Alpha-glucosidase from Baker yeast (isomaltase) at 1 mM.

A word on the inhibition: it is how much of the control response was suppressed. For orientation: IC50 means the concentration that gives 50% inhibition. A lower IC50 goes with higher potency. As a reminder, the Ki is the equilibrium dissociation constant of an inhibitor or competing ligand from its target. Higher therefore signals lower affinity. As to `OC1CNC(CNCC2CCN(Cc3ccccc3)CC2)C1O` (centres undefined), the inhibition is 59% in experiment [1], 26% in experiment [3] and 90% in the experiment with Saccharomyces cerevisiae. Further, the IC50 at Beta-galactosidase came to 770 µM; in experiment [6] it was 120 µM. Also, the inhibition result in experiment [2], in experiment [4] and in experiment [5] was “inactive” throughout. For the same molecule, affinity in experiment [6] was put at a Ki of 40 µM.

(Values after ChEMBL document CHEMBL1133958, “Derivatives of (2R,3R,4S)-2-aminomethylpyrrolidine-3,4-diol are selective alpha-mannosidase inhibitors” (Bioorg Med Chem Lett, 2001).)
